Measured values taken from ChEMBL document CHEMBL6074659, “Development of an Intravenously Stable Disulfide-Rich Peptide for the Treatment of Chemotherapy-Induced Neuropathic Pain” (J Med Chem, 2024).
Starred links: 1 amine or outer side, 2 acyl side, 3 side chain; linkers in the order of their positions; H or OH if unused. Positions of bridges follow the written chain, without caps; N, C: chain ends. Non-standard residues stand in square brackets, D forms with d. Residues, ends and D or L forms follow the SMILES beside them. Dap = NC[C@H](N)C(=O)O; CH2 = C([*:1])[*:2]

What was measured:
[1] = Stability in human serum assessed as parent compound remaining incubated at 24 hrs by RP-HPLC analysis; assay type: ADME, cell-free; conditions: human serum, read-out: Stability
[2] = target: Neuronal acetylcholine receptor; alpha9/alpha10 (Homo sapiens) (UniProt Q9UGM1+Q9GZZ6); experiment: Antagonist activity at human alpha9alpha10 nAChR expressed in acetylcholine-induced Xenopus laevis oocytes assessed as inhibition of acetylcholine-induced current at 10 nM at -80 mV holding potential incubated for 5 mins by two electrode voltage-clamp assay relative to control; assay type: cell-based; conditions: Oocyte

SMILES	remaining at 24 h [1] [%]	inhibition ([2]; filed as antagonist) [%]	inhibition [2] [%]
CC[C@H](C)[C@@H]1NC(=O)[C@H](CC(=O)O)NC(=O)[C@@H]2CCCN2C(=O)[C@H](CC(N)=O)NC(=O)[C@H](CC(N)=O)NC(=O)[C@H](C(C)C)NC(=O)[C@H](CO)NC(=O)[C@@H]2CSCSC[C@@H]3NC(=O)CNC(=O)[C@@H](N)CCC(=O)NC[C@@H](C(N)=O)NC(=O)[C@H](CSSC[C@H](NC3=O)C(=O)N[C@@H](CN)C(=O)N[C@@H](Cc3cnc[nH]3)C(=O)N3CCC[C@H]3C(=O)N[C@@H](C)C(=O)N2)NC1=O (H-EGCC[Dap]HPACSVNNPDIC[Dap]-NH2; lactam 1-18; linker 3-9 via CH2; disulfide 4-17)	57.3		
CC[C@H](C)[C@@H]1NC(=O)[C@H](CC(=O)O)NC(=O)[C@@H]2CCCN2C(=O)[C@H](CC(N)=O)NC(=O)[C@H](CC(N)=O)NC(=O)[C@H](C(C)C)NC(=O)[C@H](CO)NC(=O)[C@@H]2CSSC[C@@H]3NC(=O)CNC(=O)CNC(=O)[C@H](C)NC(=O)CNC(=O)[C@H](C)NC(=O)[C@H](C)NC(=O)CNC(=O)CNC(=O)[C@H](CSSC[C@H](NC3=O)C(=O)N[C@@H](CN)C(=O)N[C@@H](Cc3cnc[nH]3)C(=O)N3CCC[C@H]3C(=O)N[C@@H](C)C(=O)N2)NC1=O (HELM PEPTIDE1{A.A.G.A.G.G.C.C.[NC[C@H](N[*:1])C(=O)[*:2]].H.P.A.C.S.V.N.N.P.D.I.C.G.G}$PEPTIDE1,PEPTIDE1,7:R3-13:R3|PEPTIDE1,PEPTIDE1,8:R3-21:R3|PEPTIDE1,PEPTIDE1,1:R1-23:R2$$$V2.0)	61.7	> 85	
CC[C@H](C)[C@@H]1NC(=O)[C@H](CC(=O)O)NC(=O)[C@@H]2CCCN2C(=O)[C@H](CC(N)=O)NC(=O)[C@H](CC(N)=O)NC(=O)[C@H](C(C)C)NC(=O)[C@H](CO)NC(=O)[C@@H]2CSSC[C@@H]3NC(=O)CNC(=O)CNC(=O)[C@H](C)NC(=O)[C@H](C)NC(=O)CNC(=O)CNC(=O)[C@H](CSSC[C@H](NC3=O)C(=O)N[C@@H](CN)C(=O)N[C@@H](Cc3cnc[nH]3)C(=O)N3CCC[C@H]3C(=O)N[C@@H](C)C(=O)N2)NC1=O (HELM PEPTIDE1{A.A.G.G.C.C.[NC[C@H](N[*:1])C(=O)[*:2]].H.P.A.C.S.V.N.N.P.D.I.C.G.G}$PEPTIDE1,PEPTIDE1,5:R3-11:R3|PEPTIDE1,PEPTIDE1,6:R3-19:R3|PEPTIDE1,PEPTIDE1,1:R1-21:R2$$$V2.0)	< 40		20
CC[C@H](C)[C@@H]1NC(=O)[C@H](CC(=O)O)NC(=O)[C@@H]2CCCN2C(=O)[C@H](CC(N)=O)NC(=O)[C@H](CC(N)=O)NC(=O)[C@H](C(C)C)NC(=O)[C@H](CO)NC(=O)[C@@H]2CSSC[C@@H]3NC(=O)CNC(=O)CNC(=O)[C@H](C)NC(=O)[C@H](C)NC(=O)CNC(=O)[C@H](CSSC[C@H](NC3=O)C(=O)N[C@@H](CN)C(=O)N[C@@H](Cc3cnc[nH]3)C(=O)N3CCC[C@H]3C(=O)N[C@@H](C)C(=O)N2)NC1=O (HELM PEPTIDE1{A.A.G.G.C.C.[NC[C@H](N[*:1])C(=O)[*:2]].H.P.A.C.S.V.N.N.P.D.I.C.G}$PEPTIDE1,PEPTIDE1,5:R3-11:R3|PEPTIDE1,PEPTIDE1,6:R3-19:R3|PEPTIDE1,PEPTIDE1,1:R1-20:R2$$$V2.0)	< 40		< 10
CC[C@H](C)[C@@H]1NC(=O)[C@H](CC(=O)O)NC(=O)[C@@H]2CCCN2C(=O)[C@H](CC(N)=O)NC(=O)[C@H](CC(N)=O)NC(=O)[C@H](C(C)C)NC(=O)[C@H](CO)NC(=O)[C@@H]2CSSC[C@@H]3NC(=O)CNC(=O)CNC(=O)CNC(=O)[C@H](C)NC(=O)[C@H](C)NC(=O)CNC(=O)CNC(=O)[C@H](CSSC[C@H](NC3=O)C(=O)N[C@@H](CN)C(=O)N[C@@H](Cc3cnc[nH]3)C(=O)N3CCC[C@H]3C(=O)N[C@@H](C)C(=O)N2)NC1=O (HELM PEPTIDE1{A.A.G.G.G.C.C.[NC[C@H](N[*:1])C(=O)[*:2]].H.P.A.C.S.V.N.N.P.D.I.C.G.G}$PEPTIDE1,PEPTIDE1,6:R3-12:R3|PEPTIDE1,PEPTIDE1,7:R3-20:R3|PEPTIDE1,PEPTIDE1,1:R1-22:R2$$$V2.0)	43.3	> 85	
CC[C@H](C)[C@@H]1NC(=O)[C@H](CC(=O)O)NC(=O)[C@@H]2CCCN2C(=O)[C@H](CC(N)=O)NC(=O)[C@H](CC(N)=O)NC(=O)[C@H](C(C)C)NC(=O)[C@H](CO)NC(=O)[C@@H]2CSSC[C@@H]3NC(=O)CNC(=O)[C@H](CCC(=O)O)NC(=O)CNC(=O)[C@H](CCC(=O)O)NC(=O)CNC(=O)[C@H](CCC(=O)O)NC(=O)CNC(=O)[C@H](CSSC[C@H](NC3=O)C(=O)N[C@@H](CN)C(=O)N[C@@H](Cc3cnc[nH]3)C(=O)N3CCC[C@H]3C(=O)N[C@@H](C)C(=O)N2)NC1=O (HELM PEPTIDE1{A.C.S.V.N.N.P.D.I.C.G.E.G.E.G.E.G.C.C.[NC[C@H](N[*:1])C(=O)[*:2]].H.P}$PEPTIDE1,PEPTIDE1,2:R3-18:R3|PEPTIDE1,PEPTIDE1,10:R3-19:R3|PEPTIDE1,PEPTIDE1,1:R1-22:R2$$$V2.0)	57.3		20
CC[C@H](C)[C@@H]1NC(=O)[C@H](CC(=O)O)NC(=O)[C@@H]2CCCN2C(=O)[C@H](CC(N)=O)NC(=O)[C@H](CC(N)=O)NC(=O)[C@H](C(C)C)NC(=O)[C@H](CO)NC(=O)[C@@H]2CSSC[C@H](NC(=O)CN)C(=O)N[C@@H](CCC(=O)NC[C@@H](C(N)=O)NC1=O)C(=O)N[C@@H](CN)C(=O)N[C@@H](Cc1cnc[nH]1)C(=O)N1CCC[C@H]1C(=O)N[C@@H](C)C(=O)N2 (HELM PEPTIDE1{G.C.E.[NC[C@H](N[*:1])C(=O)[*:2]].H.P.A.C.S.V.N.N.P.D.I.[O=C([C@H](CN[*:3])N[*:1])[*:2]].[am]}$PEPTIDE1,PEPTIDE1,2:R3-8:R3|PEPTIDE1,PEPTIDE1,3:R3-16:R3$$$V2.0)	57.3		
CC[C@H](C)[C@@H]1NC(=O)[C@H](CC(=O)O)NC(=O)[C@@H]2CCCN2C(=O)[C@H](CC(N)=O)NC(=O)[C@H](CC(N)=O)NC(=O)[C@H](C(C)C)NC(=O)[C@H](CO)NC(=O)[C@@H]2CSSC[C@H](NC(=O)CN)C(=O)N[C@@H](CNC(=O)C[C@@H](C(N)=O)NC1=O)C(=O)N[C@@H](CN)C(=O)N[C@@H](Cc1cnc[nH]1)C(=O)N1CCC[C@H]1C(=O)N[C@@H](C)C(=O)N2 (HELM PEPTIDE1{G.C.[O=C([C@H](CN[*:3])N[*:1])[*:2]].[NC[C@H](N[*:1])C(=O)[*:2]].H.P.A.C.S.V.N.N.P.D.I.D.[am]}$PEPTIDE1,PEPTIDE1,2:R3-8:R3|PEPTIDE1,PEPTIDE1,3:R3-16:R3$$$V2.0)	57.3		< 5
CC[C@H](C)[C@@H]1NC(=O)[C@H](CC(=O)O)NC(=O)[C@@H]2CCCN2C(=O)[C@H](CC(N)=O)NC(=O)[C@H](CC(N)=O)NC(=O)[C@H](C(C)C)NC(=O)[C@H](CO)NC(=O)[C@@H]2CSSC[C@@H]3NC(=O)CNC(=O)[C@@H](N)CCNC(=O)CC[C@@H](C(N)=O)NC(=O)[C@H](CSSC[C@H](NC3=O)C(=O)N[C@@H](CN)C(=O)N[C@@H](Cc3cnc[nH]3)C(=O)N3CCC[C@H]3C(=O)N[C@@H](C)C(=O)N2)NC1=O (HELM PEPTIDE1{[Dab].G.C.C.[NC[C@H](N[*:1])C(=O)[*:2]].H.P.A.C.S.V.N.N.P.D.I.C.E.[am]}$PEPTIDE1,PEPTIDE1,1:R3-18:R3|PEPTIDE1,PEPTIDE1,3:R3-9:R3|PEPTIDE1,PEPTIDE1,4:R3-17:R3$$$V2.0)			< 5
